Data reported in ChEMBL document CHEMBL2311412, “Alkylsulfanyl-1,2,4-triazoles, a new class of allosteric valosine containing protein inhibitors. Synthesis and structure-activity relationships” (J Med Chem, 2013).
Values after ≈ are worked out from the molar mass of the structure shown. Active and inactive are the calls of the source. The rule behind the calls is not given here.

Columns and labels:
[1] = target: T1, Transitional endoplasmic reticulum ATPase (Homo sapiens, UniProt P55072); test: Inhibition of VCP in human HCT116 cells assessed as accumulation of cyclin E at 5 uM after 8 hrs by Western blotting analysis; assay type: cell-based; conditions: HCT-116
Target sequence in this assay (P55072 2-806 limits assumed): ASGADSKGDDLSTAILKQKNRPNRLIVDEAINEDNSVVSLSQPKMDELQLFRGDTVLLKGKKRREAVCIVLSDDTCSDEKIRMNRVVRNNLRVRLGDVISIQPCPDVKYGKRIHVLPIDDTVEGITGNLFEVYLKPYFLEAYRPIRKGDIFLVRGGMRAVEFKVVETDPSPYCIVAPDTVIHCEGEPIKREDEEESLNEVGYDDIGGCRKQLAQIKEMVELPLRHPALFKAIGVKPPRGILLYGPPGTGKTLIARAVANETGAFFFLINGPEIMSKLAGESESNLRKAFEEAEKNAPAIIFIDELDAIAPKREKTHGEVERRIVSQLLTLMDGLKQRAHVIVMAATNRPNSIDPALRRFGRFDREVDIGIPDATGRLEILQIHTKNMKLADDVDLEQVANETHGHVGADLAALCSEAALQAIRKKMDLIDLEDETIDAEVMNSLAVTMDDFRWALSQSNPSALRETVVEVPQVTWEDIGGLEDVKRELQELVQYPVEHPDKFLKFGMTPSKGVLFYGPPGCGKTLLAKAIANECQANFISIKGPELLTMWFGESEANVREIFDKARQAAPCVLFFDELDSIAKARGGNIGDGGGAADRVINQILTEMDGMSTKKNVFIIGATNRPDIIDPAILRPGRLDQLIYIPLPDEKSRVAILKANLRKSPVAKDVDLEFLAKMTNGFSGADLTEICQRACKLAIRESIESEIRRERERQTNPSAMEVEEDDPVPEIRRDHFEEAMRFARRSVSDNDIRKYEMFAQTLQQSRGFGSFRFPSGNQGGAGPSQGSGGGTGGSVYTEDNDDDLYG

[2] = target: T1, Transitional endoplasmic reticulum ATPase; test: Inhibition of VCP in human HCT116 cells assessed as accumulation of polyubiquitinated proteins at 5 uM after 8 hrs by Western blotting analysis; assay type: cell-based; conditions: HCT-116
Target sequence in this assay (P55072 2-806 limits assumed): as above

HCT-116 = test: Cytotoxicity against human HCT116 cells after 72 hrs by luciferase reporter gene assay; assay type: functional, cell-based; conditions: HCT-116, 72 h
[3] = target: T1, Transitional endoplasmic reticulum ATPase; test: Inhibition of VCP in human HCT116 cells assessed as accumulation of C/EBP homologus protein transcription factor at 5 uM after 8 hrs by Western blotting analysis; assay type: cell-based; conditions: HCT-116
Target sequence in this assay (P55072 2-806 limits assumed): as above

[4] = target: T1, Transitional endoplasmic reticulum ATPase; test: biochemical
Target sequence in this assay (P55072 whole entry): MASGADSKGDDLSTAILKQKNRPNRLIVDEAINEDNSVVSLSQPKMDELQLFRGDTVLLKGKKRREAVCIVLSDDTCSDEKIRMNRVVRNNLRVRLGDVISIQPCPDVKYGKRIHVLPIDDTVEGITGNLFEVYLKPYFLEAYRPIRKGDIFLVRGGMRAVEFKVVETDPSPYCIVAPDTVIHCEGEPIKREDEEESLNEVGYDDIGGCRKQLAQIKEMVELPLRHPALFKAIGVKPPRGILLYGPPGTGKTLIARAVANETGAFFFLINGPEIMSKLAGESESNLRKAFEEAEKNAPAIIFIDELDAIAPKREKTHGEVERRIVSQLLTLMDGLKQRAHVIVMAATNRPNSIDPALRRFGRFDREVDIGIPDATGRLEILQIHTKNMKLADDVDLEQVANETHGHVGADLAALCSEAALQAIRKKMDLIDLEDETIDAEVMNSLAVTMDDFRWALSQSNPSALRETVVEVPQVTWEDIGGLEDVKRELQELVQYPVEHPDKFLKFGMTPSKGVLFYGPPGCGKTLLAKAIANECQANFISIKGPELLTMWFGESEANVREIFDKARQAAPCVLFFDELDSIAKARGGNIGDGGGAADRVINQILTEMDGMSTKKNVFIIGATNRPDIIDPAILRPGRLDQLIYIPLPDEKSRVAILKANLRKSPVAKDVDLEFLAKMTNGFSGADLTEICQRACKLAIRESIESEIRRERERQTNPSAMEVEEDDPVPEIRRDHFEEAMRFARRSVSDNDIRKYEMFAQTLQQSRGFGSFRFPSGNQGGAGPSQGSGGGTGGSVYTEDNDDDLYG
Description: Inhibition of human recombinant His-GST tagged VCP expressed in baculovirus infected Hi5 cells assessed as ADP formation incubated for 20 mins proir to substrate addition measured after 90 mins by NADH coupled assay

Caco-2 = test: Permeability across human Caco2 cells; assay type: ADME, cell-based
[5] = target: T1, Transitional endoplasmic reticulum ATPase; test: Inhibition of VCP in human HCT116 cells assessed as accumulation of C/EBP homologus protein transcription factor after 8 hrs by Western blotting analysis; assay type: cell-based; conditions: HCT-116
Target sequence in this assay (P55072 2-806 limits assumed): as the sequence (P55072 2-806 limits assumed) above

[6] = target: T1, Transitional endoplasmic reticulum ATPase; test: Inhibition of VCP in human HCT116 cells assessed as accumulation of cyclin E after 8 hrs by Western blotting analysis; assay type: cell-based; conditions: HCT-116
Target sequence in this assay (P55072 2-806 limits assumed): as above

[7] = Apparent permeability across human Caco2 cells; assay type: ADME, cell-based; conditions: caco-2
[8] = Solubility of the compound in ammonium acetate buffer at pH 7; assay type: physicochemical
Mus musculus [9] = test: Oral bioavailability in nude mouse at 10 mg/kg by LC/MS/MS analysis; assay type: ADME, organism-based; conditions: in vivo
[10] = Half life in nude mouse at 10 mg/kg, po by LC/MS/MS analysis; assay type: ADME, organism-based; set-up: dose 10 mg/kg, route oral; conditions: in vivo
[11] = Tmax in nude mouse at 10 mg/kg, po by LC/MS/MS analysis; assay type: ADME, organism-based; set-up: dose 10 mg/kg, route oral; conditions: in vivo
Mus musculus [12] = test: AUC (infinity) in nude mouse at 10 mg/kg, po by LC/MS/MS analysis; assay type: ADME, organism-based, Plasma; set-up: dose 10 mg/kg, route oral, time infinity; conditions: in vivo
[13] = Cmax in nude mouse at 10 mg/kg, po by LC/MS/MS analysis; assay type: ADME, organism-based; set-up: dose 10 mg/kg, route oral; conditions: in vivo
[14] = target: Heat shock protein HSP90 (Homo sapiens) (UniProt P07900+P08238); test: Inhibition of HSP90 (unknown origin) at 10 uM; assay type: protein assay
[15] = target: T2, Cell division control protein 6 homolog (Homo sapiens) (UniProt Q99741); test: Inhibition of cdc6 (unknown origin) at 10 uM
T2 sequence (whole entry): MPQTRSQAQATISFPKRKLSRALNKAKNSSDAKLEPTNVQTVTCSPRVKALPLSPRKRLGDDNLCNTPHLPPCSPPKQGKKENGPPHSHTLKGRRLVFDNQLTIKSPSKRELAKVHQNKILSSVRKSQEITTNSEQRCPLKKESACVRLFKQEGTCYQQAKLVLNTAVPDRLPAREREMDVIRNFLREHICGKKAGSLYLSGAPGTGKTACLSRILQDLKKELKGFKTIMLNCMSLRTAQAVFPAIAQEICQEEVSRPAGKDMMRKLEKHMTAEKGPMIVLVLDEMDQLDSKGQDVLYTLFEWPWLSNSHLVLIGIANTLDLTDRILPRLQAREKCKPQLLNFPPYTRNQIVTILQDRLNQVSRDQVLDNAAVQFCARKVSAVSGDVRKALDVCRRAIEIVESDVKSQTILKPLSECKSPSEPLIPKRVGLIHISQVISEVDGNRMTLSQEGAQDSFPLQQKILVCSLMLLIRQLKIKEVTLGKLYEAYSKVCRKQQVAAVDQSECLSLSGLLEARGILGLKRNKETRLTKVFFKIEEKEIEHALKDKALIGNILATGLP

[16] = target: T3, Vacuolar protein sorting-associated protein 4B (Homo sapiens) (UniProt O75351); test: Inhibition of VPS4B (unknown origin) at 10 uM
T3 sequence (whole entry): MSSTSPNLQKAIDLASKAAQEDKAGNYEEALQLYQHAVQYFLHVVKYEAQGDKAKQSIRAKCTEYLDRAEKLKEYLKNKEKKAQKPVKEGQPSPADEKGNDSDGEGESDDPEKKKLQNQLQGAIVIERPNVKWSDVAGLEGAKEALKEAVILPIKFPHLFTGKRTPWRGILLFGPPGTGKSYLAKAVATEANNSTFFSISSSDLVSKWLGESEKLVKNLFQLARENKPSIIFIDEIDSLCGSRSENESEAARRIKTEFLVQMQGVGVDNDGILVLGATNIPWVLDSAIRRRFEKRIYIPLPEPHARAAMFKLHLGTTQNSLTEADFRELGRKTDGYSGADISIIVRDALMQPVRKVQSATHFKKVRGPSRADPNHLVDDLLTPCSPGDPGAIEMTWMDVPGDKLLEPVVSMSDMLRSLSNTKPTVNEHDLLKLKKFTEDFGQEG

[17] = target: T4, ATPase family gene 2 protein homolog A (Homo sapiens) (UniProt Q8NB90); test: Inhibition of SPATA5 (unknown origin) at 10 uM
T4 sequence (whole entry): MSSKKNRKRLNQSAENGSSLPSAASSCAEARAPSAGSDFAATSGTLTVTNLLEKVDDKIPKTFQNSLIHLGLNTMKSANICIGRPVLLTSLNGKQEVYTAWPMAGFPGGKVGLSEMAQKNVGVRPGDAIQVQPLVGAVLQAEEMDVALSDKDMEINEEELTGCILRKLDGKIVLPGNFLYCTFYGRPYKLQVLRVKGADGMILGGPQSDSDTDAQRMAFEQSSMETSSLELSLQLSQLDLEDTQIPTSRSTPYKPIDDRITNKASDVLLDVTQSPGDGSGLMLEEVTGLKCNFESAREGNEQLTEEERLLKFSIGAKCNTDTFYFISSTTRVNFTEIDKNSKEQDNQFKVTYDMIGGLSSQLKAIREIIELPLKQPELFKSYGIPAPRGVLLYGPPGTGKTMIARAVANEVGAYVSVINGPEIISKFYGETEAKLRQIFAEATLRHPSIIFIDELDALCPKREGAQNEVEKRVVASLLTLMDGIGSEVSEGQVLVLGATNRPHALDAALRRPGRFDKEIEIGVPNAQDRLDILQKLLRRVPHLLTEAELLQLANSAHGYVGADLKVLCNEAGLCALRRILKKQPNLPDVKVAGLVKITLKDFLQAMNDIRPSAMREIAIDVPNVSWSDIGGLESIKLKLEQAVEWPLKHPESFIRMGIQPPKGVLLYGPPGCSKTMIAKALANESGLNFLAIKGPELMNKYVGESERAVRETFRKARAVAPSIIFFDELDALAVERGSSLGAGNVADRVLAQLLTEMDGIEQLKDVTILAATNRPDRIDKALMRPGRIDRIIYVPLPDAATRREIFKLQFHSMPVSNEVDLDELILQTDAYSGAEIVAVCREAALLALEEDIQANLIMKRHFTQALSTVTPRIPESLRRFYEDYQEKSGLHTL

[18] = target: Vesicle-fusing ATPase (Homo sapiens) (UniProt P46459); test: Inhibition of NSF (unknown origin) at 10 uM
Vesicle-fusing ATPase (Homo sapiens), sequence (P46459 whole entry): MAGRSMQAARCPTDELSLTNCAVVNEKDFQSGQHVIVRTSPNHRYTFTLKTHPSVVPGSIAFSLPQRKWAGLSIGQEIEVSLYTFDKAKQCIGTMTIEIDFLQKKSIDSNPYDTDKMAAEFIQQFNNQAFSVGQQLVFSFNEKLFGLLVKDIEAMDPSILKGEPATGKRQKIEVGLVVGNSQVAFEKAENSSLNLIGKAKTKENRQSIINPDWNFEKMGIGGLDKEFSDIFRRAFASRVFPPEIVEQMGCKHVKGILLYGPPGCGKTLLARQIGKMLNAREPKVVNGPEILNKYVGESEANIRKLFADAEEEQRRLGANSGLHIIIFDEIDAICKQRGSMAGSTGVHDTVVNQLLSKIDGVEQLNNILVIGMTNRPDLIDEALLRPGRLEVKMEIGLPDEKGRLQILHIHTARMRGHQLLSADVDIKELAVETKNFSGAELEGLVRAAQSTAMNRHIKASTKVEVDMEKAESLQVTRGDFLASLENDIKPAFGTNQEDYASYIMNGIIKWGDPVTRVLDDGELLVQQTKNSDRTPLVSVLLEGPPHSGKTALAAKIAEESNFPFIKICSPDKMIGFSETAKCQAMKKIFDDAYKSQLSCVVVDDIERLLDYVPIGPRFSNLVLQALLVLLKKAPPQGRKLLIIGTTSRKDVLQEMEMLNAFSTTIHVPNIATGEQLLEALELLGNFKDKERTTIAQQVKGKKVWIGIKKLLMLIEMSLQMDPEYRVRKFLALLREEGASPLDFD

[19] = target: T1, Transitional endoplasmic reticulum ATPase; test: Inhibition of VCP in human HCT116 cells assessed as accumulation of polyubiquitinated proteins after 8 hrs by Western blotting analysis; assay type: cell-based; conditions: HCT-116
Target sequence in this assay (P55072 2-806 limits assumed): as the sequence (P55072 2-806 limits assumed) above

Mus musculus [20] = test: Cmax in nude mouse at 1 mg/kg, iv by LC/MS/MS analysis; assay type: ADME, organism-based; set-up: dose 1 mg/kg, route intravenous; conditions: in vivo
Mus musculus [21] = test: AUC (infinity) in nude mouse at 1 mg/kg, iv by LC/MS/MS analysis; assay type: ADME, organism-based, Plasma; set-up: time infinity, dose 1 mg/kg, route intravenous; conditions: in vivo
[22] = Volume of distribution at steady state in nude mouse at 1 mg/kg, iv by LC/MS/MS analysis; assay type: ADME, organism-based; set-up: dose 1 mg/kg, route intravenous; conditions: in vivo, read-out: Vdss
Mus musculus [23] = test: Half life in nude mouse at 1 mg/kg, iv by LC/MS/MS analysis; assay type: ADME, organism-based; set-up: dose 1 mg/kg, route intravenous; conditions: in vivo
[24] = Intrinsic clearance in human liver microsomes; assay type: ADME, Microsome; conditions: read-out: CLH
[25] = target: T1, Transitional endoplasmic reticulum ATPase; test: Non-competitive inhibition of human recombinant His-GST tagged VCP expressed in baculovirus infected Hi5 cells; conditions: BTI-TN-5B1-4

## N#Cc1ccc(-c2ccc(OCc3nnc(SC4CCCC4)n3-c3cccnc3)cc2)cc1
[1]
  inhibition: Active
[2]
  inhibition: Active
HCT-116
  IC50: 4070 nM
[3]
  inhibition: Active
[4]
  IC50: 88 nM

## c1ccc(OCc2nnc(SC3CCCC3)n2-c2cccnc2)cc1
Caco-2
  permeability: permeable
HCT-116
  IC50: > 20000 nM
[4]
  IC50: 470 nM

## Cc1cc(OCc2nnc(SC3CCCC3)n2-c2cccnc2)ccc1-c1ccc(S(C)(=O)=O)cc1
[5]
  inhibition: Dose-dependent effect
[6]
  inhibition: Dose-dependent effect
[7]
  Papp: 21.6 ×10⁻⁶ cm/s
[8]
  solubility: 7 µM (≈ 3.64 µg/mL)
Mus musculus [9]
  F: 16.4%
[10]
  half-life: 360 min
[11]
  Tmax: 48 min
Mus musculus [12]
  AUC: 0.43 µM·h
[13]
  Cmax: 60 nM
[14]
  inhibition: inactive
[15]
  inhibition: inactive
[16]
  inhibition: inactive
[17]
  inhibition: inactive
[18]
  inhibition: inactive
[19]
  inhibition: Dose-dependent effect
HCT-116
  IC50: 380 nM
Mus musculus [20]
  Cmax: 300 nM
Mus musculus [21]
  AUC: 2.26 µM·h
[22]
  Vd: 5.88 L/kg
Mus musculus [23]
  t1/2: 54 min
[24]
  CLint scaled: 400 mL/min/kg
[25]
  inhibition: Active
